Experimental data taken from ChEMBL document CHEMBL4265914, “Discovery of selective urokinase plasminogen activator (uPA) inhibitors as a potential treatment for multiple sclerosis” (Bioorg Med Chem Lett, 2018).
pIC50: −log10 of the molar value. Active and inactive are the calls of the source. The rule behind the calls is not given here.

How the values were obtained:
[1] = target: Urokinase-type plasminogen activator (Homo sapiens, UniProt P00749); assay: Inhibition of human uPA
[2] = target: Tissue-type plasminogen activator (Homo sapiens, UniProt P00750); assay: Inhibition of human tPA
Plasminogen [3] = target: Plasminogen (Homo sapiens, UniProt P00747); assay: Inhibition of human plasmin
Rattus norvegicus [4] = assay: Volume of distribution in rat at 2 mg/kg, po; assay type: ADME, organism-based; settings: in vivo
[5] = Oral bioavailability in rat at 2 mg/kg; assay type: ADME, organism-based; settings: in vivo
[6] = Clearance in rat at 2 mg/kg, po; assay type: ADME, organism-based; settings: in vivo
[7] = target: Urokinase-type plasminogen activator (Mus musculus, UniProt P06869); assay: Inhibition of mouse uPA
Mus musculus [8] = assay: Prevention of multiple sclerosis development in chronic SJL mouse EAE model at 50 mg/kg, po bid; assay type: functional, organism-based
Plasminogen [9] = target: Plasminogen (Mus musculus, UniProt P20918); assay: Inhibition of mouse plasmin
Mus musculus [10] = assay: Prevention of multiple sclerosis development in acute SJL mouse EAE model at 25 to 50 mg/kg, po bid; assay type: functional, organism-based
[11] = Half life in rat at 2 mg/kg, po; assay type: ADME, organism-based; settings: in vivo
Mus musculus [12] = assay: Prevention of multiple sclerosis development in chronic SJL mouse EAE model at 10 to 25 mg/kg, po bid; assay type: functional, organism-based
Rattus norvegicus [13] = assay: Total AUC in rat at 2 mg/kg, po; assay type: ADME, organism-based; design: dose 2 mg/kg, route oral, time AUCmax; settings: in vivo
[14] = target: Tissue-type plasminogen activator (Mus musculus, UniProt P11214); assay: Inhibition of mouse tPA
[15] = Cmax in rat at 2 mg/kg, po; assay type: ADME, organism-based; design: dose 2 mg/kg, route oral; settings: in vivo

Tissue-type plasminogen activator (Homo sapiens, UniProt P00750), sequence (P00750 whole entry): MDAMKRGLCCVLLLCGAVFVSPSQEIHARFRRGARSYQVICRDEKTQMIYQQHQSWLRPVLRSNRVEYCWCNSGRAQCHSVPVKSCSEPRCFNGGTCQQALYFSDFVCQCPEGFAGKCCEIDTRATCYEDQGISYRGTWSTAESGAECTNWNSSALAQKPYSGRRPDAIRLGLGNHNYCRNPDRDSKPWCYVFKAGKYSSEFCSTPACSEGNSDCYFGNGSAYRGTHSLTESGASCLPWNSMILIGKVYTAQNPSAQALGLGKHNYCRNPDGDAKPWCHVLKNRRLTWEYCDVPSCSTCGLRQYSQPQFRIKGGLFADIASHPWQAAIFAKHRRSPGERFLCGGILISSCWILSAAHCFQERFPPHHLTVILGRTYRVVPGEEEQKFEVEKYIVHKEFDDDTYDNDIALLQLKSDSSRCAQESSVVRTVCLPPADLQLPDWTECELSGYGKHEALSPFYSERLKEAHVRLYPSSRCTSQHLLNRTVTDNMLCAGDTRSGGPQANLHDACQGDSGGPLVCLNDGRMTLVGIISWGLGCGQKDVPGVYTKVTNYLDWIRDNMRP
Plasminogen (Homo sapiens, UniProt P00747), sequence (P00747 97-580 limits assumed): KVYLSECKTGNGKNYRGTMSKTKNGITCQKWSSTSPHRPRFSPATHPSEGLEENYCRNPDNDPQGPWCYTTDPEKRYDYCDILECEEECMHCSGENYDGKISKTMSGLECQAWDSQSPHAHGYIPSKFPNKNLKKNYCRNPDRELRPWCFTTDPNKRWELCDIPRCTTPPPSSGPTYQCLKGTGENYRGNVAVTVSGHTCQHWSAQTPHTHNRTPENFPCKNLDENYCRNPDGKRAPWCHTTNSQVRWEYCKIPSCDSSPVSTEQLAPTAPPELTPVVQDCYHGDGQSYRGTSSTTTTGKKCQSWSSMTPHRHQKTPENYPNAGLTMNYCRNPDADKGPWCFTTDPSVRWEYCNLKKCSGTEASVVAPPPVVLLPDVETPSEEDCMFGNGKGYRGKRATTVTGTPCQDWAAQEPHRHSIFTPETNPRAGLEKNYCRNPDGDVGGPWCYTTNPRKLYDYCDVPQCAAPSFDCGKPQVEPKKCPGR
Plasminogen (Homo sapiens, UniProt P00747), sequence (P00747 581-810 limits assumed): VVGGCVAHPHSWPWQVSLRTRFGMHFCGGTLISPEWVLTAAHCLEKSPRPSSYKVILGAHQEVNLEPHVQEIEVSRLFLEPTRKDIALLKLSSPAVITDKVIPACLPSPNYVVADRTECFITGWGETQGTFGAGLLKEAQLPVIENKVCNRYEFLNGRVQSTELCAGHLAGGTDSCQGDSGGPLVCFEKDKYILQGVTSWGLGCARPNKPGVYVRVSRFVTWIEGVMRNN
Plasminogen (Mus musculus, UniProt P20918), sequence (P20918 98-581 limits assumed): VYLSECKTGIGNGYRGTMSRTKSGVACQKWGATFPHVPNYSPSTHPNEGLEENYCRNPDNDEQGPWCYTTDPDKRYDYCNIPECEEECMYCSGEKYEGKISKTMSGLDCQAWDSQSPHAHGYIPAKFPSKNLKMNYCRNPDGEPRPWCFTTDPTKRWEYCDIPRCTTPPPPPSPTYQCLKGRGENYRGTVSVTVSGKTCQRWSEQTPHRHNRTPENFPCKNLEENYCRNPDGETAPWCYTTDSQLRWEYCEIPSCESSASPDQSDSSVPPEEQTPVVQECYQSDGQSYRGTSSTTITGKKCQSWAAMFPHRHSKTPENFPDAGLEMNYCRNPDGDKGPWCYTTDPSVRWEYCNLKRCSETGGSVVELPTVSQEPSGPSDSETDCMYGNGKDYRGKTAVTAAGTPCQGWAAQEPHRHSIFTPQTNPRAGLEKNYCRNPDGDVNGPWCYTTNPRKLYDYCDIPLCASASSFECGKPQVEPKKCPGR
Plasminogen (Mus musculus, UniProt P20918), sequence (P20918 582-812 limits assumed): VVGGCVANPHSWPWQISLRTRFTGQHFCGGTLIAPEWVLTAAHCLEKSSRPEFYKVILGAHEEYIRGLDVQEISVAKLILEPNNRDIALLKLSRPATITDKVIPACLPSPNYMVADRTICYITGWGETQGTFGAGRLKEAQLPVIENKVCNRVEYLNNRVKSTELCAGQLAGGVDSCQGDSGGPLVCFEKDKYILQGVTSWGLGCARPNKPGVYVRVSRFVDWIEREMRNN
Tissue-type plasminogen activator (Mus musculus, UniProt P11214), sequence (P11214 whole entry): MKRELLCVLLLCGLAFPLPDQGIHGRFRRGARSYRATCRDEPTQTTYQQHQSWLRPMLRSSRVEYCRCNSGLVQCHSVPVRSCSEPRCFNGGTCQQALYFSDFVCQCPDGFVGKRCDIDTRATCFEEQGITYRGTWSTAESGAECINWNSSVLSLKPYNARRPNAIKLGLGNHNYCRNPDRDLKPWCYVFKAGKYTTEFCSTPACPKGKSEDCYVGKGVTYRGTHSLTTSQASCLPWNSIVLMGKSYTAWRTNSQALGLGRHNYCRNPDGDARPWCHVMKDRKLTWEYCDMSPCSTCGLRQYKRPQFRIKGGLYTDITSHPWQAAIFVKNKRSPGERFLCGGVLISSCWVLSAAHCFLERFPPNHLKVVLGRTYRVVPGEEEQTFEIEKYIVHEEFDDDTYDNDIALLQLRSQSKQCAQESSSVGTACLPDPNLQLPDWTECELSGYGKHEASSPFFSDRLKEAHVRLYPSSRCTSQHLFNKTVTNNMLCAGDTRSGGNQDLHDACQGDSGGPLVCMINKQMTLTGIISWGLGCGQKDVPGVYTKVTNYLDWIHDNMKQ
Urokinase-type plasminogen activator (Mus musculus, UniProt P06869), sequence (P06869 21-178 limits assumed): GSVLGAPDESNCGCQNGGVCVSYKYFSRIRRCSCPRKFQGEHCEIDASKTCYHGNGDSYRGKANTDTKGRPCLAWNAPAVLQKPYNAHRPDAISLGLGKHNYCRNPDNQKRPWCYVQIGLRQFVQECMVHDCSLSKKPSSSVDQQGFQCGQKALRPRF
Urokinase-type plasminogen activator (Mus musculus, UniProt P06869), sequence (P06869 180-433 limits assumed): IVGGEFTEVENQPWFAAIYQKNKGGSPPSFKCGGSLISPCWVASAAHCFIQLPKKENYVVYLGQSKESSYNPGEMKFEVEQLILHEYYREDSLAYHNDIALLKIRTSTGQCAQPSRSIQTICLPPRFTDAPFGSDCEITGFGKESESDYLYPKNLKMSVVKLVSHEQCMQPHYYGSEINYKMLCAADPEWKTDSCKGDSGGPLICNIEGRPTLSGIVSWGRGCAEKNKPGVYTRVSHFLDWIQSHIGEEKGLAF

| Compound | pIC50 [1] | pIC50 [2] | pIC50 (Plasminogen [3]) | other results |
| --- | --- | --- | --- | --- |
| NCc1cccc(-c2cccc(Oc3nc(OCC(=O)O)c(F)cc3F)c2)c1 | 5.48 |  |  |  |
| CC(C)(C)[C@@H](Oc1nc(Oc2cc(C#N)cc(-c3cccc(CN)c3)c2)c(F)cc1F)C(=O)O | 7.47 | 5.24 | 5.27 |  |
| CC(C)(C)[C@@H](Oc1nc(Oc2cccc(-c3cccc(CN)c3)c2)c(F)cc1F)C(=O)O | 7.08 | 5.84 | 5.26 |  |
| COc1cc(Oc2nc(O[C@@H](C(=O)O)C(C)(C)C)c(F)cc2F)cc(-c2cccc(CN)c2)c1 | 7.64 | 5.73 | 5.48 |  |
| C[C@@H](Oc1nc(Oc2cccc(-c3cccc(CN)c3)c2)c(F)cc1F)C(=O)O | 6.44 |  | 5.29 |  |

The next lines start with results.

| pIC50 [1] | pIC50 [2] | pIC50 (Plasminogen [3]) | Compound | other results |
| --- | --- | --- | --- | --- |
| 5.14 | < 4.52 | < 4.52 | CC[C@H](Oc1nc(Oc2cccc(-c3cccc(CN)c3)c2)c(F)cc1F)C(=O)O |  |
| 7.10 | 5.80 | 5.88 | CC[C@@H](Oc1nc(Oc2cc(C)cc(-c3cccc(CN)c3)c2)c(F)cc1F)C(=O)O | Vd (Rattus norvegicus [4]): 0.6 L/kg; bioavailability [5]: 30%; CL/F [6]: 4 mL/min/kg; pIC50 [7]: 6.39; Activity (Mus musculus [8]): Active; pIC50 (Plasminogen [9]): 5.80; Activity (Mus musculus [10]): Active; half-life [11]: 2.2 h; Activity (Mus musculus [12]): inactive; AUC (Rattus norvegicus [13]): 13200 ng·h/mL; pIC50 [14]: 6.04 |
| 7.29 | 6.33 | 5.72 | Cc1cc(Oc2nc(O[C@@H](C(=O)O)C(C)(C)C)c(F)cc2F)cc(-c2cccc(CN)c2)c1 |  |
| 6.63 | 5.80 | 5.73 | CC[C@@H](Oc1nc(Oc2cccc(-c3cccc(CN)c3)c2)c(F)cc1F)C(=O)O | Vd (Rattus norvegicus [4]): 0.76 L/kg; bioavailability [5]: 55%; Cmax [15]: 640 ng/mL; CL/F [6]: 8.4 mL/min/kg; half-life [11]: 2.8 h; AUC (Rattus norvegicus [13]): 2200 ng·h/mL |
